# Measurements from patent US20120122931A1, “INDOLE DERIVATIVE OR PHARMACEUTICALLY ACCEPTABLE SALT THEREOF” (KISSEI PHARMACEUTICAL CO., LTD., priority 2009, published 2012).
# “And” between values parts separate entries of the source, which are not always exact repeats. Equal entries are not always repeated.
# Molecular target: T1, rat EP1 receptor (Rattus norvegicus, UniProt P70597)
# T1 construct: expressed in transfected cells; host or cells: COS-1 cells, transient transfection with Lipofectamine 2000
# T1 sequence (P70597 1-405): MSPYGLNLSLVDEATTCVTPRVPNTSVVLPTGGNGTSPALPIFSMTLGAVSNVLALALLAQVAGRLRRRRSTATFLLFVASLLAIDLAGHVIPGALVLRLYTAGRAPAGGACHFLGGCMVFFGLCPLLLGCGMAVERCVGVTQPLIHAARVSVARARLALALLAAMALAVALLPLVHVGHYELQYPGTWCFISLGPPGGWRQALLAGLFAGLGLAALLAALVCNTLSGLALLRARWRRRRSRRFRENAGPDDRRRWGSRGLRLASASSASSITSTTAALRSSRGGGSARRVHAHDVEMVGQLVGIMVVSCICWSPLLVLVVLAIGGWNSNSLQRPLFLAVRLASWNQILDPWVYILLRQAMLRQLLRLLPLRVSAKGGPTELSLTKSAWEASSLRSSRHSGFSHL
# Assay: Test for confirmation of EP1 receptor antagonism: inhibition of prostaglandin E2-induced increase in intracellular calcium concentration (Method A or Method B)
# Type: cell-based
# Details: Method B (Calcium kit II Fluo 4, FDSS 7000); rat EP1 receptor-expressing cells; prostaglandin E2 10 nM
# Protocol: (1) Preparation of Rat EP1 Expression vector
# Using Rat Kidney BD Marathon-Ready cDNA (Nippon Becton Dickinson Company, Ltd.) as a template, a forward primer shown in SEQ ID NO. 1, and a reverse primer shown in SEQ ID NO. 2, a first run of PCR was carried out using KOD-Plus-Ver 2.0 (Toyobo Co., Ltd.). Further, using this amplification product as a template, a forward primer shown in SEQ ID NO. 3, and a reverse primer shown in SEQ ID NO. 4, a second run of PCR was carried out in the same manner. The amplification product obtained by the second run of PCR was incorporated into a vector (pcDNA3.1 D/V5-His-TOPO (registered trademark), Invitrogen Japan K. K.). By a conventional method, the vector containing this amplification product was introduced to E. coli (One Shot TOP10 Competent Cells, Invitrogen Corporation) to transform. This transformed E. coli was cultured in an LB agar medium for one day. After the culture, colonies were selected and cultured in an LB liquid medium containing 50 μg/mL of ampicillin. After the culture, the vector was purified using a QIAprep Spin Miniprep Kit (Qiagen K. K.). The base sequence of the insertion site of this vector (SEQ ID NO. 5) was compared with the rat EP1 base sequence (Ptger1) registered as an accession number NM_013100 in well-known database (NCBI), and as a result, they all matched except for a single base. Further, the amino acid sequence translated by the base sequence completely matched the amino acid sequence of the rat EP1 receptor registered as an NCBI accession number NP_037232. Therefore, it was confirmed that the cloned gene sequence was a base sequence of the rat EP1 receptor and the obtained amino acid sequence was that of the rat EP1 receptor. The pcDNA3.1 D/V5-His-TOPO (registered trademark) to which the nucleic acid shown in SEQ ID NO. 5 had been inserted was taken as a rat EP1-expressing vector.
# (2) Preparation of Rat EP1 Receptor-Expressing Cells
# COS-1 cells (Dainippon Sumitomo Pharma Co., Ltd.) were cultured until it reached confluence in an incubator at 37° C. under a 5% CO2 gas condition, using a D-MEM liquid medium (high glucose and L-glutamine contained, Invitrogen Corporation) to which a penicillin-streptomycin solution (Invitrogen Corporation, final concentration: 100 U/mL as benzylpenicillin; 100 μg/mL as streptomycin) as an antibiotic, MEM nonessential amino acids (Invitrogen Corporation, final Concentration: 0.1 mM), and fetal calf serum (Sanko Junyaku Co., Ltd., final concentration: 10%) were added.
# (2-2) COS-1 Cell Subculture
# The cells that had reached confluence were stripped with 0.05% trypsin/0.53 mM EDTA 4Na (Invitrogen Japan K. K.) and resuspended in the above liquid medium. The resuspended cells were diluted and cultured in the above liquid medium at a spread ratio from 1:4 to 1:8.
# (2-3) Preparation of Cells for Introduction of Rat EP1-Expressing Vector
# The cells that had reached confluence were stripped with 0.05% trypsin/0.53 mM EDTA.4Na, and resuspended in a D-MEM liquid medium (high glucose and L-glutamine contained, Invitrogen Corporation) to which an MEM nonessential amino acid (final concentration: 0.1 mM) and fetal calf serum (final concentration: 10%) were added. In each well of a Poly D-lysine-coated 96-well microplate (BD BioCoat (registered trademark), Nippon Becton Dickinson Company, Ltd.), this resuspended cell suspension culture was prepared to be 5×10^4 cells/well in 100 μL of the liquid medium, and seeded thereon. After seeding, the cells were cultured in an incubator at 37° C. under a 5% CO2 gas condition. At a point when the cells for introduction of a rat EP1-expressing vector were adhered (about 2 hours after seeding), introduction of the rat EP1-expressing vector was carried out in the following order.
# (2-4) Introduction of Rat EP1-Expressing Vector
# For introduction of the rat EP1-expressing vector, Lipofectamine 2000 (Invitrogen Japan K. K.) was used. […]
row,Compound,IC50
1,"O=C(O)c1cccc(Cc2c(-c3ccccc3)[nH]c3cc(C4CC4)c(F)cc23)n1 [Example 16-68, 6-(6-cyclopropyl-5-fluoro-2-phenyl-1H-indol-3-ylmethyl)pyridine-2-carboxylic acid]",34 nM
2,O=C(O)c1cccc(Cc2c(-c3ccccc3)[nH]c3cc(OC(F)F)ccc23)n1 [Example 16-73],23 nM
3,"O=C(O)c1cccc(Cc2c(-c3ccc(F)cc3)[nH]c3cc(C4CC4)c(F)cc23)n1 [Example 16-74, 6-[6-cyclopropyl-5-fluoro-2-(4-fluorophenyl)-1H-indol-3-ylmethyl]pyridine-2-carboxylic acid]",47 nM
4,"O=C(O)c1cccc(Cc2c(-c3ccsc3)[nH]c3cc(C4CC4)c(F)cc23)n1 [Example 16-75, 6-(6-cyclopropyl-5-fluoro-2-thiophen-3-yl-1H-indol-3-ylmethyl)pyridine-2-carboxylic acid]",16 nM
5,"O=C(O)c1cccc(Cc2c(-c3cccnc3)[nH]c3cc(C4CC4)c(F)cc23)n1 [Example 16-76, 6-(6-cyclopropyl-5-fluoro-2-pyridine-3-yl-1H-indol-3-ylmethyl)pyridine-2-carboxylic acid]",20 nM
6,"COc1cc2c(Cc3cccc(C(=O)O)n3)c(-c3ccccc3)[nH]c2cc1C [Example 16-78, 6-(5-methoxy-6-methyl-2-phenyl-1H-indol-3-ylmethyl)pyridine-2-carboxylic acid]",24 nM
7,"CCOc1cc2[nH]c(-c3ccsc3)c(Cc3cccc(C(=O)O)n3)c2cc1F [Example 16-79, 6-(6-ethoxy-5-fluoro-2-thiophen-3-yl-1H-indol-3-ylmethyl)pyridine-2-carboxylic acid]",22 nM
8,"CCOc1cc2[nH]c(-c3ccccc3)c(Cc3cccc(C(=O)O)n3)c2cc1C [Example 16-84, 6-(6-ethoxy-5-methyl-2-phenyl-1H-indol-3-ylmethyl)pyridine-2-carboxylic acid]",17 nM
9,"COc1cc2[nH]c(-c3ccc(F)cc3)c(Cc3cccc(C(=O)O)n3)c2cc1C [Example 16-85, 6-[2-(4-fluorophenyl)-6-methoxy-5-methyl-1H-indol-3-ylmethyl]pyridine-2-carboxylic acid]",18 nM
10,"COc1cc2c(Cc3cccc(C(=O)O)n3)c(-c3ccsc3)[nH]c2cc1Cl [Example 16-86, 6-(6-chloro-5-methoxy-2-thiophen-3-yl-1H-indol-3-ylmethyl)pyridine-2-carboxylic acid]",18 nM
11,"COc1cc2[nH]c(C(C)(C)C)c(Cc3cccc(C(=O)O)n3)c2cc1Cl [Example 16-89, 6-(2-tert-butyl-5-chloro-6-methoxy-1H-indol-3-ylmethyl)pyridine-2-carboxylic acid]",22 nM

# Next, values leading:
row,IC50,Compound
1,30 nM,"Cc1cc2c(Cc3cccc(C(=O)O)n3)c(-c3ccsc3)[nH]c2cc1Cl [Example 16-92, 6-(6-chloro-5-methyl-2-thiophen-3-yl-1H-indol-3-ylmethyl)pyridine-2-carboxylic acid]"
2,46 nM,"CCOc1cc2[nH]c(-c3ccsc3)c(Cc3cccc(C(=O)O)n3)c2cc1C [Example 16-93, 6-(6-ethoxy-5-methyl-2-thiophen-3-yl-1H-indol-3-ylmethyl)pyridine-2-carboxylic acid]"
3,32 nM,"COc1cc2[nH]c(C(C)(C)C)c(Cc3cccc(C(=O)O)n3)c2cc1F [Example 16-97, 6-(2-tert-butyl-5-fluoro-6-methoxy-1H-indol-3-ylmethyl)pyridine-2-carboxylic acid]"
4,47 nM,"COc1cc2[nH]c(C(C)(C)C)c(Cc3cccc(C(=O)O)n3)c2cc1C [Example 16-98, 6-(2-tert-butyl-6-methoxy-5-methyl-1H-indol-3-ylmethyl)pyridine-2-carboxylic acid]"
5,44 nM and 26 nM,"Cc1cc2c(Cc3cccc(C(=O)O)n3)c(-c3ccccc3)[nH]c2cc1C1CC1 [Example 16-100, 6-(6-cyclopropyl-5-methyl-2-phenyl-1H-indol-3-ylmethyl)pyridine-2-carboxylic acid]"
